pIC50: −log10 of the molar value. Converted amounts (≈) assume the structure as drawn. “And” between values parts separate entries of the source, which are not always exact repeats. Equal entries are not always repeated. Where two headings read alike, the source gives them in different places.
Assays:
[1] = format: in vitro ADME
Mtb strain H37Rv [2] = format: cell-based, Mycobacterium tuberculosis
Mtb DHFR [3] = biological target: T1, Mtb DHFR (Mycobacterium tuberculosis, UniProt P9WNX1); format: biochemical; details: read-out: Enzyme IC50 Mtb; purified Mtb DHFR
[4] = test system: intracellular Mtb growth in macrophages (THP-1 cells); experiment: Intracellular assay of Mtb clearance in THP-1 cells; format: cell-based, Mycobacterium tuberculosis; details: Mtb in THP-1 cells
Mtb strain H37Rv [5] = details: cited from earlier work; for activity against live Mtb: result in words; for MIC90 wt: wild-type Mtb, ref Nixon et al.[15]
Mtb DHFR [6] = biological target: T1, Mtb DHFR; details: cited from earlier work; for inhibition of the Mtb DHFR enzyme: result in words
[7] = in vivo; cited from earlier work
human DHFR = biological target: T2, human DHFR (Homo sapiens, UniProt P00374); experiment: Biochemical assay of human DHFR; details: read-out: Enzyme IC50 Human; recombinant human DHFR
T2 sequence (P00374 1-187): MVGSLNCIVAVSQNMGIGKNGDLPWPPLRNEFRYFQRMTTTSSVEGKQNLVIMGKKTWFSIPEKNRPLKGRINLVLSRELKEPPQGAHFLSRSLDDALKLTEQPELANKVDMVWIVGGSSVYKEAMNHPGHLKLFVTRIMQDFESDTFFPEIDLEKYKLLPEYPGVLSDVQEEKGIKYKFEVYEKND

T1 sequence (P9WNX1 whole entry): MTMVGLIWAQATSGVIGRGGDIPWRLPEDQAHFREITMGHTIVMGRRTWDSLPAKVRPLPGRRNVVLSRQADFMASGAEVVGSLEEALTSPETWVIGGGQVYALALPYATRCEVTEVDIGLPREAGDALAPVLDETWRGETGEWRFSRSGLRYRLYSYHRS

SMILES	in vitro clearance in mouse microsomes [1] [mg/mL·g]	MIC90 wt (Mtb strain H37Rv [2])	Tox50 HepG2 (HepG2) [µM]	activity against live Mtb (Mtb strain H37Rv [5])	inhibition of the Mtb DHFR enzyme (Mtb DHFR [6])	other results
N#Cc1ccc(Cn2ccc3c4c(N)nc(N)nc4ccc32)cc1 [PQD-1]	<0.5	0.5 µM and 0.50 µM	10			pIC50 (Mtb DHFR [3]): 8.00; intracell MIC90 [4]: 0.7 µM
COc1cc(NCc2ccc3nc(N)nc(N)c3c2C)cc(OC)c1OC [Trimetrexate]				poor or no activity	strong inhibition	MIC90 wt (Mtb strain H37Rv [5]): 6.3 µM (≈ 2.33 µg/mL); MIC90 wt (Mtb strain H37Rv [5]; listed as trimetrexate): 6.25 µM (≈ 2.31 µg/mL)
CC1(C)N=C(N)N=C(N)N1OCCCOc1cc(Cl)c(Cl)cc1Cl [WR99210]	<0.5	1 to 2 µM	40			toxicity in humans [7]: acute gastrointestinal toxicity; cell health: membrane permeability (HepG2 human hepatocytes): 19 µM; cell health: mitochondrial potential (HepG2 human hepatocytes): 25 µM; cell health: nuclear morphology (HepG2 human hepatocytes): 10 µM; pIC50 (human DHFR): 8.05; pIC50 (Mtb DHFR [6]; read-out: Enzyme IC50 Mtb, ref Nixon et al.[15]): 7.85
CN(Cc1cnc2nc(N)nc(N)c2n1)c1ccc(C(=O)N[C@@H](CCC(=O)O)C(=O)O)cc1 [methotrexate]				poor or no activity		
CCc1nc(N)nc(N)c1-c1ccc(Cl)cc1 [pyrimethamine]				poor or no activity	strong inhibition	

— paper PMC4707675 (ACS infectious diseases, 2015)
